Values of other authors in paper PMC7365549 (ACS Omega, 2020).

Legend:
5-HT3 = settings: read-out: Ki, binding to 5-HT3 receptor
[1] = molecular target: T1, human serotonin receptor 5-HT3 (Homo sapiens, UniProt P46098); settings: read-out: Inhibition Constants (Ki) 5-HT3; comparison values
T1 sequence (P46098 24-478): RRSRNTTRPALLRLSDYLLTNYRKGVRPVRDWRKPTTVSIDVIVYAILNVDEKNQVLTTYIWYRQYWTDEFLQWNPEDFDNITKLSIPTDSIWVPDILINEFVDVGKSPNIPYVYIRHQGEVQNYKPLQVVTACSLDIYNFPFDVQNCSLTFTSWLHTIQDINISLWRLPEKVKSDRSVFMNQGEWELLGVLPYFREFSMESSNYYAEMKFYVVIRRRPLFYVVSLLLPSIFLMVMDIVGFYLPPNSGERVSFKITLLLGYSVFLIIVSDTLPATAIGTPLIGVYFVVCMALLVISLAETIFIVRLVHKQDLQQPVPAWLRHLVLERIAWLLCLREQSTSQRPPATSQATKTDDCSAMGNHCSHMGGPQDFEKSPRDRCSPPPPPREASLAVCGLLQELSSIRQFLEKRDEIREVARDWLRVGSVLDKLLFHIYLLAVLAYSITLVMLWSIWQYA

[2] = molecular target: human serotonin receptor 5-HT2A (Homo sapiens, UniProt P28223); settings: read-out: Inhibition Constants (Ki) 5-HT2A; comparison values
human serotonin receptor 5-HT2A, sequence (P28223 whole entry): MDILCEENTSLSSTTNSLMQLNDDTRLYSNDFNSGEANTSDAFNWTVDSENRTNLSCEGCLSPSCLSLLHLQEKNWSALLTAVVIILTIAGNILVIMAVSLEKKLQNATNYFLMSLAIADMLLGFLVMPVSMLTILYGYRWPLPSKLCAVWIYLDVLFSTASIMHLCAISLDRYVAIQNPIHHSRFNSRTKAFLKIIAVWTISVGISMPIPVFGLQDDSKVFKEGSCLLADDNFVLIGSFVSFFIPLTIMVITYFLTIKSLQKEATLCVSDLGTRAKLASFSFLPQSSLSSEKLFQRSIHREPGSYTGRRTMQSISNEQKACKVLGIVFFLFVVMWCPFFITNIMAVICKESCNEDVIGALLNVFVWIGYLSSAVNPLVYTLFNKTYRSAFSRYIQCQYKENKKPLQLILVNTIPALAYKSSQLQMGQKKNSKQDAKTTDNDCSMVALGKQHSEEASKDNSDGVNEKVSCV

[3] = molecular target: T2, human serotonin receptor 5-HT1A (Homo sapiens, UniProt P08908); settings: read-out: Inhibition Constants (Ki) 5-HT1A; comparison values
T2 sequence (P08908 1-422): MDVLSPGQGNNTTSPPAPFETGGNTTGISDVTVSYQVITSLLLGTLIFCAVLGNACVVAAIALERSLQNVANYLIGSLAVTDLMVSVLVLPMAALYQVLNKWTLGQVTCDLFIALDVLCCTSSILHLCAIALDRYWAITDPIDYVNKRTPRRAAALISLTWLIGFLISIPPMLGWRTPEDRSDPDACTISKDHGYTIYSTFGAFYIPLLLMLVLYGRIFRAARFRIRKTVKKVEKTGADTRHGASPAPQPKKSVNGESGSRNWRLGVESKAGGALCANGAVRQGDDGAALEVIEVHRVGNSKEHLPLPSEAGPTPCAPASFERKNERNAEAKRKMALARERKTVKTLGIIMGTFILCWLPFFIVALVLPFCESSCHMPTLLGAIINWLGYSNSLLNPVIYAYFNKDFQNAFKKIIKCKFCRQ

Compound	Ki (5-HT3) [µM]	Ki [1] [µM]	Ki [2] [µM]	Ki [3] [µM]
C[N+](C)(C)CCc1c[nH]c2ccc([O-])cc12 [Bufotenidine, bufotenidine]	0.017			
CN(C)CCc1c[nH]c2cccc(O)c12 [psilocin]		> 10		
CN(C)CCc1c[nH]c2cccc(OP(=O)(O)O)c12 [psilocybin]		> 10	> 10	> 10
